Reference: patent US3940413A, “1-Ethyl-imidazoles” (Bayer Aktiengesellschaft, priority 1972, dated 1976)
Converted amounts (≈) assume the structure as drawn.

Legend:
Experiment in all cases: antimycotic action spectrum in vitro, series dilution test
Type in all cases: cell-based
Aspergillus niger = conditions: in nutrient medium, 28°C, 24 to 96 hours; for MIC: Aspergillus niger, read-out: Minimum inhibitory concentration, Aspergillus niger
Protocol: (§1) Determination of the anti-mycotic action spectrum in vitro by the series dilution test.
(§2) The nutrient substrates used were, for dermatophytes and moulds, Sabourauds' test medium, and, for blastomyces and biphase fungi, meat broth-glucose bouillon.
(§3) The incubation temperature was 28°C and the incubation time was 24 to 96 hours.

Penicillium commune = conditions: in nutrient medium, 28°C, 24 to 96 hours; for MIC: Penicillium commune, read-out: Minimum inhibitory concentration, Penicillium commune
Protocol: as §1, §2, §3

Candida albicans = conditions: in nutrient medium, 28°C, 24 to 96 hours; for MIC: Candida albicans, read-out: Minimum inhibitory concentration, Candida albicans
Protocol: as §1, §2, §3

[1] = test system: Trichophyton mentagrophytes; conditions: in nutrient medium, Sabourauds' test medium, 28°C, 24 to 96 hours; for MIC: Trichophyton mentagrophytes, read-out: Minimum inhibitory concentration, Trichophyton mentagrophytes
Protocol: as §1, §2, §3

`CC(C)(C)C(=O)C(Cn1ccnc1)Oc1ccc(Cl)cc1` (centres unmarked) [Example 1, 2-(4-chlorophenoxy)-1-imidazolyl-(1)-4,4-dimethyl-pentan-3-one] gave an MIC (Aspergillus niger) of 8 µg/mL (≈ 26.1 µM), an MIC (Penicillium commune) of 32 µg/mL (≈ 104 µM) and an MIC (Candida albicans) of 4 µg/mL (≈ 13 µM). For the same compound, the MIC [1] was 4 µg/mL (≈ 13 µM).

For `CC(C)(C)C(=O)C(Cn1ccnc1)Oc1ccc(Cl)cc1` (centres unmarked) [Example 4, 2-(4-chlorophenoxy)-1-imidazolyl-(1)-4,4-dimethyl-pentan-3-one], the “Minimum inhibitory concentration, Aspergillus niger” value (Aspergillus niger) was 4 µg/mL (≈ 13 µM), the “Minimum inhibitory concentration, Penicillium commune” value (Penicillium commune) was 32 µg/mL (≈ 104 µM) and the “Minimum inhibitory concentration, Candida albicans” value (Candida albicans) was 4 µg/mL (≈ 13 µM). For the same compound, the “Minimum inhibitory concentration, Trichophyton mentagrophytes” value [1] was 4 µg/mL (≈ 13 µM).

Compound `CC(C)(C)C(=O)C(Cn1ccnc1)Oc1ccc(Cl)cc1Cl` (centres unmarked) [Example 5, 2-(2,4-dichlorophenoxy)-1-imidazolyl-(1)-4,4-dimethyl-pentan-3-one] has an MIC (Aspergillus niger) of 4 µg/mL (≈ 11.7 µM), an MIC (Penicillium commune) of 16 µg/mL (≈ 46.9 µM) and an MIC (Candida albicans) of 4 µg/mL (≈ 11.7 µM). For the same compound, the MIC [1] was less than 1 µg/mL.

Work on `CC(C)(C)C(=O)C(Cn1ccnc1)Oc1ccc(Br)cc1` (centres unmarked) [Example 6, 2-(4-bromophenoxy)-1-imidazolyl-(1)-4,4-dimethyl-pentan-3-one] yielded an MIC (Aspergillus niger) of 4 µg/mL (≈ 11.4 µM), an MIC (Penicillium commune) of 16 µg/mL (≈ 45.6 µM) and an MIC (Candida albicans) of 4 µg/mL (≈ 11.4 µM). It also gave an MIC [1] of 8 µg/mL (≈ 22.8 µM).

For `CC(C)(C)C(=O)C(Cn1ccnc1)Oc1ccc(F)cc1` (centres unmarked) [Example 7, 2-(4-fluorophenoxy)-1-imidazolyl-(1)-4,4-dimethyl-pentan-3-one], the MIC (Aspergillus niger) was 4 µg/mL (≈ 13.8 µM), the MIC (Penicillium commune) was 32 µg/mL (≈ 110 µM) and the MIC (Candida albicans) was 4 µg/mL (≈ 13.8 µM). It also gave an MIC [1] of 8 µg/mL (≈ 27.6 µM).

With `CC(C)(C)C(=O)C(Cn1ccnc1)Oc1ccccc1Cl` (centres unmarked) [Example 8, 2-(2-chlorophenoxy)-1-imidazolyl-(1)-4,4-dimethyl-pentan-3-one] the MIC (Aspergillus niger) was 4 µg/mL (≈ 13 µM), the MIC (Penicillium commune) was 16 µg/mL (≈ 52.2 µM) and the MIC (Candida albicans) was 4 µg/mL (≈ 13 µM). For the same compound, the MIC [1] was 8 µg/mL (≈ 26.1 µM).

Work on `CC(C)(C)C(=O)C(Cn1ccnc1)Oc1cccc(Cl)c1` (centres unmarked) [Example 9, 2-(3-chlorophenoxy)-1-imidazolyl-(1)-4,4-dimethyl-pentan-3-one] yielded an MIC (Aspergillus niger) of 4 µg/mL (≈ 13 µM), an MIC (Penicillium commune) of 16 µg/mL (≈ 52.2 µM) and an MIC (Candida albicans) of 4 µg/mL (≈ 13 µM). It also gave an MIC [1] of 4 µg/mL (≈ 13 µM).

With `CC(C)(C)C(=O)C(Cn1ccnc1)Oc1cc(Cl)c(Cl)cc1Cl` (centres unmarked) [Example 10, 2-(2,4,5-trichlorophenoxy)-1-imidazolyl-(1)-4,4-dimethyl-pentan-3-one] the MIC (Aspergillus niger) was 4 µg/mL (≈ 10.6 µM), the MIC (Penicillium commune) was 16 µg/mL (≈ 42.6 µM) and the MIC (Candida albicans) was 4 µg/mL (≈ 10.6 µM). It also gave an MIC [1] of 4 µg/mL (≈ 10.6 µM).

`Cc1cc(Cl)ccc1OC(Cn1ccnc1)C(=O)C(C)(C)C` (centres unmarked) [Example 12] gave an MIC (Aspergillus niger) of 8 µg/mL (≈ 24.9 µM), an MIC (Penicillium commune) of 8 µg/mL (≈ 24.9 µM) and an MIC (Candida albicans) of 4 µg/mL (≈ 12.5 µM). For the same compound, the MIC [1] was less than 1 µg/mL.

For `CC(C)(C)C(=O)C(Cn1ccnc1)Oc1ccccc1-c1ccccc1` (centres unmarked) [Example 13, 2-(2-phenylphenoxy)-1-imidazolyl-(1)-4,4-dimethyl-pentan-3-one], the MIC (Aspergillus niger) was 8 µg/mL (≈ 23 µM), the MIC (Penicillium commune) was 16 µg/mL (≈ 45.9 µM) and the MIC (Candida albicans) was 4 µg/mL (≈ 11.5 µM). For the same compound, the MIC [1] was 8 µg/mL (≈ 23 µM).

In the case of `CC(C)(C)C(=O)C(Cn1ccnc1)Oc1ccc(-c2ccccc2)cc1` (centres unmarked) [Example 14, 2-(4-phenylphenoxy)-1-imidazolyl-(1)-4,4-dimethyl-pentan-3-one], the MIC (Aspergillus niger) is reported as 8 µg/mL (≈ 23 µM), the MIC (Penicillium commune) is reported as 8 µg/mL (≈ 23 µM) and the MIC (Candida albicans) is reported as 4 µg/mL (≈ 11.5 µM). For the same compound, the MIC [1] was less than 1 µg/mL.
